Tests used:
[1] = target: T1, HSV-1 helicase-primase (Human herpesvirus 1, UniProt P10189+P10236); assay: HSV-1 DNA-dependent ATPase assay (inhibition of HSV-1 helicase-primase); type: biochemical
T1 construct: made in house; host or cells: Sf21 insect cells triply infected with recombinant baculoviruses (UL5, UL8, UL52)
Method in brief: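 ATP hydrolysis was measured as inorganic phosphate (malachite green/molybdate, 650 nm) after 20 min at 34°. Reaction: 3 μg/mL purified Sf21-expressed UL5/UL8/UL52 helicase-primase, 25 μM single-stranded M13 DNA hybridized to 68-mer, 4 mM ATP, pH 7.5 HEPES buffer, 3.3% DMSO. Net absorbance change with and without inhibitor gave DNA-dependent ATPase activity.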

[2] = tested on: HCMV (strain AD169); assay: Inhibition of HCMV replication, plaque reduction assay (PRA, Hs-68 cells); type: cell-based, Human Cytomegalovirus (HCMV); settings: read-out: PRA CMV EC50
Method in brief: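 Hs-68 monolayers (80–90% confluent) were infected with ~50 PFU HCMV AD169 for 2 h at 37°, then given compound in DMEM/5% inactivated FBS, refreshed after 4 days and kept 4 more days. Plaques were counted after formaldehyde fixation and crystal violet staining. EC50 derives from percent plaque reduction versus untreated wells.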

[3] = tested on: HCMV (strain AD169); assay: Inhibition of HCMV replication, ELISA assay (Hs-68 cells); type: cell-based, Human Cytomegalovirus (HCMV); settings: read-out: ELISA CMV EC50
Method in brief: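 EC50 derived from % inhibition of viral replication, read as p28 late-protein ELISA signal (mAb UL99, peroxidase/OPD, 450 nm) on fixed cells. Read-out came 8 days post-infection at 37 °C in DMEM with 5% FBS plus compound, after 2 h adsorption of AD169 at MOI 0.01 PFU/cell onto near-confluent Hs-68 cells.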

[4] = Human betaherpesvirus 5, AD169, Hs68, Group 2 Table 2 entries
[5] = Human betaherpesvirus 5, AD169, Hs68, Group 2 Table 1 entries
[6] = Human betaherpesvirus 5, AD169, Hs68, Group 1 Table 6 entries
[7] = Human betaherpesvirus 5, AD169, Hs68, Group 1 Table 5 entries

T1 sequence (P10192 whole entry): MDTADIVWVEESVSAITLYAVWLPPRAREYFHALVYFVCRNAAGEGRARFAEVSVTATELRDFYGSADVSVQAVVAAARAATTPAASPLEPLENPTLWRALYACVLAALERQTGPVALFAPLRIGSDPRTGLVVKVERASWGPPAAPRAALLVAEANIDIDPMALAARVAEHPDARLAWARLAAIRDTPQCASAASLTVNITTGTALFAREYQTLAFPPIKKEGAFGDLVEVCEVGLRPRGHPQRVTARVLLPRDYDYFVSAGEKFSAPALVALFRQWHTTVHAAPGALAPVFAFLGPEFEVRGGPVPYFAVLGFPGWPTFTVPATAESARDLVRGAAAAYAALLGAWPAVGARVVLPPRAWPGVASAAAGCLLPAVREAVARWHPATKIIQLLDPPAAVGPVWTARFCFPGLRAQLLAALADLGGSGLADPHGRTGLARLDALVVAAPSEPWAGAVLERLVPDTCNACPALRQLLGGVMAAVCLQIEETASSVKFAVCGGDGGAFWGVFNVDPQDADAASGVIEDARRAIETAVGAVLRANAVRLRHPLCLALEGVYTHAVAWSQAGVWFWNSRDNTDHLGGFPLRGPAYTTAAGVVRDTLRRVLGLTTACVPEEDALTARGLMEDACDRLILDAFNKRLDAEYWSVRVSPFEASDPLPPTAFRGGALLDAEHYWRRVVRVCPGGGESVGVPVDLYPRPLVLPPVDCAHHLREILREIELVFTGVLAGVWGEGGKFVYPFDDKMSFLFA
T1 sequence (P10236 whole entry): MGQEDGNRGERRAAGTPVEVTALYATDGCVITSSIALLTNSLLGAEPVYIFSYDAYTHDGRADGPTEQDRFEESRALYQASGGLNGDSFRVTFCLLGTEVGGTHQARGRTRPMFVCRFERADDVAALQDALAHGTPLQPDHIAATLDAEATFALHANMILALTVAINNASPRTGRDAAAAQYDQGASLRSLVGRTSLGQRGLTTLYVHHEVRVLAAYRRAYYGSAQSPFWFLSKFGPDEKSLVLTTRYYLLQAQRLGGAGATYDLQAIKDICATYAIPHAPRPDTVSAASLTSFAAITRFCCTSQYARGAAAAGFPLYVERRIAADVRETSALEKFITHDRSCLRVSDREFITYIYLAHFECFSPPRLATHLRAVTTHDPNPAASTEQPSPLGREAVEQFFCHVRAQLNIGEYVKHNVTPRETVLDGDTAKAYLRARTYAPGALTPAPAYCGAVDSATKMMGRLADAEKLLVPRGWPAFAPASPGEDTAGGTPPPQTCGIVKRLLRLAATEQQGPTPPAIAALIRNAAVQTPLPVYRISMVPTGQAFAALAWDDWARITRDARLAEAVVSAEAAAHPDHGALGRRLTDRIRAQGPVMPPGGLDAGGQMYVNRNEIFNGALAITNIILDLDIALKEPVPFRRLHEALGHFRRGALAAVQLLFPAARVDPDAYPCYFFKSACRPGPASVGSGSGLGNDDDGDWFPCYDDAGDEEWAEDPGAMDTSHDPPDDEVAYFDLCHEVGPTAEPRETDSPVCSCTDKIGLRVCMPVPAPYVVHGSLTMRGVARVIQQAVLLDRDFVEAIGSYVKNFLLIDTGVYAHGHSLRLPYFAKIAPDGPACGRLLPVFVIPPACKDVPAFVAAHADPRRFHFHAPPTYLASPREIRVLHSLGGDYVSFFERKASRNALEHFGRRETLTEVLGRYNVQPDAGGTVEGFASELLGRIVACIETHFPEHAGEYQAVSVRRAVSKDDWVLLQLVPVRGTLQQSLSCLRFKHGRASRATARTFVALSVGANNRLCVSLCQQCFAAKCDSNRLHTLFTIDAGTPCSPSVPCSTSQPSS
T1 sequence (P10189 whole entry): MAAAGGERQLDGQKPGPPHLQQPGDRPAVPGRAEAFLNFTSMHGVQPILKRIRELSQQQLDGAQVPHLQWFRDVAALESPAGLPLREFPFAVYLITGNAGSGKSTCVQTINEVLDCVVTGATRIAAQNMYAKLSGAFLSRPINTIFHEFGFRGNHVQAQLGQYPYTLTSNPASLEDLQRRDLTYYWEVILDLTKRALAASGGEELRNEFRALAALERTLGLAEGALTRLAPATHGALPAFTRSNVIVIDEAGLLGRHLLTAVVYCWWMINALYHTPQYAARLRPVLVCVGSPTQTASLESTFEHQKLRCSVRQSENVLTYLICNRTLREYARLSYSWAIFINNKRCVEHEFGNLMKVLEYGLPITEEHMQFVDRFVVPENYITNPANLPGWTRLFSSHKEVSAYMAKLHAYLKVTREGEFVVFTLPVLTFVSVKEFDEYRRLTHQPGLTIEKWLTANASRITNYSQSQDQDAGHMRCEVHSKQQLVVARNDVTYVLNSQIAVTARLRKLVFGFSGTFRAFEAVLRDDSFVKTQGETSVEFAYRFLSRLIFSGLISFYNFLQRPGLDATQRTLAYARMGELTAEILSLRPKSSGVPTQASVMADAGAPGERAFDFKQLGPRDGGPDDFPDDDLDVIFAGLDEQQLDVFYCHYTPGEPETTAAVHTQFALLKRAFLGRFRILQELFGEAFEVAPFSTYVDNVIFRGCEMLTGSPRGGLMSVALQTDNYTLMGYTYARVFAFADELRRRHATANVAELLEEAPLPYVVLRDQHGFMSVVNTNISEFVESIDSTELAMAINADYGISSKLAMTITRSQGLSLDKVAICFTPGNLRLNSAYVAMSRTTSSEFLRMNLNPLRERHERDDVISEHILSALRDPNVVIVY

Row | Compound | IC50 ([1]; Group 2 Table 1 entries) | EC50 [2, 5] | EC50 [3, 5] | IC50 ([1]; Group 1 Table 6 entries) | EC50 [2, 6] | EC50 [3, 6] | further results
1 | CCCCN(CCCC)C(=O)C(=O)Nc1ccc(-c2csc(N)n2)cc1 [Example 1, N-{4-(2-Amino-4-thiazolyl)phenyl}-N',N'-dibutylethanediamide] |  |  |  |  |  |  | IC50 ([1]; Group 2 Table 2 entries (A = C(O))): 7 µM; EC50 [2, 4]: > 4 µM; EC50 [3, 4]: 2.6 µM
2 | CCCCN(CCCC)C(=O)Nc1ccc(-c2csc(N)n2)cc1 [Example 1, N-{4-(2-Amino-4-thiazolyl)phenyl}-N,N-dibutylurea] | 4.2 µM | 37 µM | 4.1 µM |  |  |  | 
3 | Nc1nc(-c2ccc(NC(=O)[C@@H]3CCC(=O)N3Cc3ccccc3)cc2)cs1 [Example 2] |  |  |  | 6.2 µM | 50 µM | 22 µM | 
4 | Nc1nc(-c2ccc(NC(=O)[C@H]3CCC(=O)N3CC3CCCCC3)cc2)cs1 [Example 3] |  |  |  | 6.2 µM | 45 µM | 1.4 µM | 
5 | CN(CCc1ccccn1)C(=O)Nc1ccc(-c2csc(N)n2)cc1 [Example 4] | 3.7 µM | > 144 µM | 126 µM |  |  |  | 
6 | Nc1nc(-c2ccc(NC(=O)[C@@H]3CCCN3C(=O)c3ccccc3)cc2)cs1 [Example 5] |  |  |  | 1.6 µM | > 89 µM | 63 µM | 
7 | Nc1nc(-c2ccc(NC(=O)[C@@H]3CCCN3C(=O)C3CCCCC3)cc2)cs1 [Example 6] |  |  |  | 0.052 µM | 22 µM | 28 µM | 
8 | CC(C)(C)OC(=O)N1CCC[C@@H]1C(=O)Nc1ccc(-c2csc(N)n2)cc1 [Example 8] |  |  |  | 7.5 µM | > 83 µM | 11 µM | 
9 | Nc1nc(-c2ccc(NC(=O)[C@H]3CCCN3C(=O)c3ccccc3)cc2)cs1 [Example 9] |  |  |  | 1.6 µM | > 88 µM | 0.3 µM | 
10 | CN(C(=O)OC(C)(C)C)[C@@H](Cc1ccccc1)C(=O)Nc1ccc(-c2csc(N)n2)cc1 [Example 10] |  |  |  |  |  |  | IC50 ([1]; Group 1 Table 5 entries): 0.09 µM; EC50 [2, 7]: 12 µM; EC50 [3, 7]: 2.5 µM
11 | Nc1nc(-c2ccc(NC(=O)[C@H]3CCCN3C(=O)C3CCCCC3)cc2)cs1 [Example 10] |  |  |  | 0.13 µM | 48 µM | 0.6 µM | 
12 | CCCC(CCC)NC(=O)Nc1ccc(-c2csc(N)n2)cc1 [Example 11] | 17 µM | 13 µM | 1.3 µM |  |  |  | 
13 | Nc1nc(-c2ccc(NC(=O)[C@H](Cc3ccccc3)N(Cc3ccccc3)C(=O)C3CCCCC3)cc2)cs1 [Example 11] |  |  |  |  |  |  | IC50 ([1]; Group 1 Table 5 entries): 0.4 µM; EC50 [2, 7]: 8 µM; EC50 [3, 7]: 1.4 µM
14 | CC(C)(C)NC(=O)Nc1ccc(-c2csc(N)n2)cc1 [Example 12] | 20 µM | > 32 µM | 6 µM |  |  |  | 
15 | CN(CCc1ccccn1)C(=O)Nc1ccc(-c2csc(NC(=O)OC(C)(C)C)n2)cc1 [Example 14] | > 100 µM | 2 µM | 1.5 µM |  |  |  | 
16 | CCCCN(CCCC)C(=O)Nc1ccc(-c2csc(NC(=O)OC(C)(C)C)n2)cc1 [Example 15] | > 100 µM | 1.1 µM | 1 µM |  |  |  | 
17 | CC(C)(C)CC(=O)N[C@@H](Cc1ccccc1)C(=O)Nc1ccc(-c2csc(N)n2)cc1 [Example 19] |  |  |  |  |  |  | IC50 ([1]; Group 1 Table 5 entries): 0.051 µM; EC50 [2, 7]: 21 µM; EC50 [3, 7]: 3.8 µM
18 | Nc1nc(-c2ccc(NC(=O)[C@H](Cc3ccccc3)NS(=O)(=O)N3CCOCC3)cc2)cs1 [Example 25] |  |  |  |  |  |  | IC50 ([1]; Group 1 Table 5 entries): 0.17 µM; EC50 [2, 7]: 55 µM; EC50 [3, 7]: 0.6 µM

— patent US6288091A, “Antiherpes virus compounds and methods for their preparation and use” (Boehringer Ingelheim Ltd., priority 1999, dated 2001)
